Test systems include OVCAR-3; MDA-MB-231; MOLT-4; EKVX; ACHN; SK-MEL-28; SW-620; COLO 205; SK-MEL-2; MDA-MB-435; TK-10; SR; RPMI-8226; Malme-3M; K562; PC-3; SN12C; NCI-H522; HOP-62; HOP-92.
Test in all cases: NCI tumour cell line growth inhibition, 48 h

SMILES strings stand for the structures. Where a name gives a salt, the structure may show the parent alone.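 Five concentrations, 48 hours, 96-well plates. The concentration for 50% growth inhibition is given as GI50.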 Activity calls are given as the source filed them. Cut-off read from the data, not from the text of the source: active = GI50 up to about 1.1 µM and inactive = higher. Some results are limits rather than exact numbers.

Consider `O=C(O)c1ccccc1SCc1cccc2c(=O)c3ccc(Cl)cc3oc12`, for which the GI50 with OVCAR-3 was > 50 µM (inactive); with MDA-MB-231, > 50 µM (inactive); in the test on MOLT-4, > 50 µM (inactive); in the test on EKVX, > 50 µM (inactive); in the test with ACHN, 32.4 µM (inactive); in the test with SK-MEL-28, > 50 µM (inactive). Besides, the GI50 with SW-620 was > 50 µM (inactive); with COLO 205, > 50 µM (inactive); in the test on SK-MEL-2 it was 46.9 µM (inactive); in the test with MDA-MB-435 it was > 50 µM (inactive); in the test with TK-10, 29.8 µM (inactive); in the test with SR it was 39 µM (inactive). For the same compound, the GI50 is > 50 µM (inactive) in the test with RPMI-8226; 10.7 µM (inactive) with Malme-3M; 27.7 µM (inactive) with K562; 26.8 µM (inactive) in the test with PC-3; > 50 µM (inactive) in the test with SN12C; 29.2 µM (inactive) in the test on NCI-H522. The GI50 with HOP-62 is 12.9 µM (inactive).

Turning to `OC(Cc1cc(CC(O)(C(F)(F)F)C(F)(F)F)nc(CC(O)(C(F)(F)F)C(F)(F)F)c1)(C(F)(F)F)C(F)(F)F`, the GI50 with OVCAR-3 was 0.49 µM (active); in the test with MDA-MB-231, 1.92 µM (inactive); with MOLT-4, 3.85 µM (inactive); in the test with EKVX it was 2.07 µM (inactive); with ACHN it was 0.681 µM (active); in the test on SK-MEL-28, 1.98 µM (inactive). Moreover, the GI50 with SW-620 was 0.574 µM (active); in the test on COLO 205 it was 0.918 µM (active); with SK-MEL-2, 2.02 µM (inactive); in the test on MDA-MB-435, 2.39 µM (inactive); with TK-10, 3.99 µM (inactive); with RPMI-8226 it was > 10 µM (inactive). The GI50 with Malme-3M is 2.59 µM (inactive); in the test on K562, > 10 µM (inactive); in the test on PC-3 it was 0.323 µM (active); in the test on SN12C, 2.2 µM (inactive); in the test with NCI-H522, 3.06 µM (inactive); in the test on HOP-62, 1.73 µM (inactive). The GI50 with HOP-92 is 0.541 µM (active).

For `COc1nc(C)nc2sc3c(c12)CCCC3`, the GI50 in the test with OVCAR-3 is > 100 µM (inactive); in the test with MDA-MB-231 it was > 100 µM (inactive); in the test with MOLT-4, > 100 µM (inactive); in the test with EKVX, 38.4 µM (inactive); in the test with ACHN, > 100 µM (inactive); in the test with SK-MEL-28, > 100 µM (inactive). For the same compound, the GI50 with SW-620, in the test on COLO 205, with SK-MEL-2, in the test with MDA-MB-435, with TK-10 and in the test with SR was > 100 µM (inactive) throughout. Besides, the GI50 in the test with RPMI-8226 was 55.3 µM (inactive); with Malme-3M, > 100 µM (inactive); in the test with K562 it was > 100 µM (inactive); with PC-3, > 100 µM (inactive); with SN12C, > 100 µM (inactive); in the test on NCI-H522 it was > 100 µM (inactive). The GI50 with HOP-62 was > 100 µM (inactive).

Regarding `OC(c1ccc(F)cc1)(c1ccc(F)cc1)C1CC1`, the GI50 in the test on OVCAR-3 is 32.5 µM (inactive); with MDA-MB-231, 36.1 µM (inactive); with MOLT-4, 21.5 µM (inactive); with EKVX, 29.2 µM (inactive); in the test on ACHN, 30.1 µM (inactive); with SK-MEL-28, 30 µM (inactive). For the same compound, the GI50 in the test with SW-620 is 25.6 µM (inactive); in the test with COLO 205, 16.2 µM (inactive); in the test with SK-MEL-2 it was 16.1 µM (inactive); with MDA-MB-435 it was 23 µM (inactive); in the test on TK-10 it was 30.7 µM (inactive); in the test on RPMI-8226, 26.9 µM (inactive). Further, the GI50 is 23.9 µM (inactive) in the test on Malme-3M; 31.4 µM (inactive) in the test on K562; 20 µM (inactive) in the test with PC-3; 20.9 µM (inactive) in the test on SN12C; 21.2 µM (inactive) with NCI-H522; 65.9 µM (inactive) in the test with HOP-62. The GI50 in the test on HOP-92 was 33.8 µM (inactive).

As to `CN(C)c1ccc(/C=C(\NC(=O)c2ccccc2)C(=O)NC(CCC(=O)O)C(=O)O)cc1` (stereo unspecified), the GI50 in the test on OVCAR-3, with MDA-MB-231, in the test with MOLT-4, with EKVX, in the test on ACHN and in the test on SK-MEL-28 was > 100 µM (inactive) throughout. Further, the GI50 with SW-620, in the test with COLO 205, in the test with SK-MEL-2, in the test with MDA-MB-435, with TK-10 and with RPMI-8226 was > 100 µM (inactive) in each case. For the same compound, the GI50 with Malme-3M, with K562, in the test on PC-3, in the test with SN12C, with NCI-H522 and in the test on HOP-62 was > 100 µM (inactive) throughout. The GI50 with HOP-92 was > 100 µM (inactive).

In the case of `CC1CC/C(=C\c2ccc(N(C)C)cc2)C(=O)/C1=C/c1ccc(N(C)C)cc1` (stereo unspecified), the GI50 in the test with OVCAR-3, with MDA-MB-231, with MOLT-4, in the test with EKVX, in the test on ACHN and in the test on SK-MEL-28 was > 100 µM (inactive) in each case. Moreover, the GI50 in the test on SW-620, in the test with COLO 205, in the test on SK-MEL-2, with MDA-MB-435, in the test on TK-10 and in the test on SR was > 100 µM (inactive) throughout. For the same compound, the GI50 in the test with Malme-3M is 0.228 µM (active); in the test with K562, > 100 µM (inactive); with PC-3, > 100 µM (inactive); in the test with SN12C, > 100 µM (inactive); with NCI-H522, > 100 µM (inactive); in the test on HOP-62, > 100 µM (inactive).

As for `O=C(O)C1CCCCN1CCc1c[nH]c2ccccc12` (stereo unspecified), the GI50 in the test on OVCAR-3, in the test on MDA-MB-231, in the test with MOLT-4, with EKVX, with ACHN and in the test with SK-MEL-28 was > 100 µM (inactive) throughout. The GI50 in the test with SW-620, with COLO 205, with SK-MEL-2, in the test with MDA-MB-435, in the test with TK-10 and with RPMI-8226 was > 100 µM (inactive) each time. The GI50 with Malme-3M, with K562, in the test with PC-3, in the test on SN12C, with NCI-H522 and with HOP-62 was > 100 µM (inactive) each time. Further, the GI50 in the test on HOP-92 is 30.7 µM (inactive).

On to `CO[C@H]1C[C@H](n2cc(C)c(=O)[nH]c2=O)O[C@@H]1CO`, for which the GI50 in the test on OVCAR-3, in the test with MDA-MB-231, in the test with MOLT-4, in the test with EKVX, in the test with ACHN and in the test with SK-MEL-28 was > 100 µM (inactive) throughout. Also, the GI50 in the test with SW-620, in the test with COLO 205, in the test with MDA-MB-435, in the test with TK-10, in the test on SR and in the test on RPMI-8226 was > 100 µM (inactive) in each case. The GI50 with Malme-3M, in the test on K562, in the test on PC-3, in the test with SN12C and with HOP-62 was > 100 µM (inactive) in each case.

As for `O=C(/C=C/c1ccccc1)Oc1ccc(C(=O)/C=C/c2ccc(Cl)cc2)cc1`, the GI50 in the test with OVCAR-3, in the test on MDA-MB-231, in the test with MOLT-4, in the test on EKVX, in the test on ACHN and in the test with SK-MEL-28 was > 100 µM (inactive) throughout. For the same compound, the GI50 with SW-620 was > 100 µM (inactive); in the test with COLO 205 it was > 100 µM (inactive); with SK-MEL-2 it was > 100 µM (inactive); in the test on MDA-MB-435, 25.1 µM (inactive); with TK-10, > 100 µM (inactive); in the test with SR, 3.23 µM (inactive). Further, the GI50 in the test with RPMI-8226 is 43.3 µM (inactive); with Malme-3M, > 100 µM (inactive); in the test on K562, 87.3 µM (inactive); with PC-3 it was 59.7 µM (inactive); with SN12C it was > 100 µM (inactive); in the test on HOP-62, > 100 µM (inactive).

For `C=C1C[C@@H]2CC[C@@]34C[C@H]5O[C@H]6[C@@H](O3)[C@H]3O[C@H](CC[C@@H]3O[C@H]6[C@H]5O4)CC(=O)C[C@@H]3[C@@H](OC)[C@@H](C[C@H](O)CN)O[C@H]3C[C@H]3O[C@@H](CC[C@@H]1O2)C[C@@H](C)C3=C` [ERIBULIN MESYLATE], the GI50 in the test with OVCAR-3 was 9.59e-05 µM (active); with MDA-MB-231 it was 0.00255 µM (active); in the test with MOLT-4 it was 0.000791 µM (active); with EKVX, 0.007 µM (active); with ACHN, 0.0556 µM (active); in the test with SK-MEL-28, 0.00361 µM (active). The GI50 was 0.00241 µM (active) with SW-620; 0.00031 µM (active) with COLO 205; 0.00607 µM (active) in the test on SK-MEL-2; 5.96e-05 µM (active) in the test with MDA-MB-435; 0.0815 µM (active) in the test with TK-10; 0.000516 µM (active) with RPMI-8226. The GI50 is 0.00366 µM (active) with Malme-3M; 0.000916 µM (active) in the test with K562; 0.00037 µM (active) with PC-3; 0.00361 µM (active) in the test on SN12C; 0.00025 µM (active) in the test on NCI-H522; 0.00412 µM (active) with HOP-62. Further, the GI50 in the test with HOP-92 was 0.00352 µM (active).
